Results reported in patent US5219848A, “Cephem compounds” (ICI Pharma, priority 1989, dated 1993).

Tests used:
Format in all cases: cell-based
Parameters in all cases: unit not given here
Conditions in all cases: Isosensitest agar, 10^4 CFU/spot
[1] = system: Kleb. oxytoca (A8395055); test: MIC by agar-dilution, Kleb. oxytoca (A8395055)
Source text: (§1) The following results were obtained for representative compounds on a standard in vitro test system using Isosensitest agar medium. The antibacterial activity is described in terms of the minimum inhibitory concentration (MlC) determined by the agar-dilution technique with an inoculum size of 10^4 CFU/spot.

[2] = system: S. dublin (A8369001); test: MIC by agar-dilution, S. dublin (A8369001)
Source text: as §1

[3] = system: E. coli DCO (A8341098); test: MIC by agar-dilution, E. coli DCO (A8341098)
Source text: as §1

[4] = system: Ent. cloacae P99 (A8401054); test: MIC by agar-dilution, Ent. cloacae P99 (A8401054)
Source text: as §1

[5] = system: Pr. morganii (A8433001); test: MIC by agar-dilution, Pr. morganii (A8433001)
Source text: as §1

[6] = system: Strep. pyogenes (A681018); test: MIC by agar-dilution, Strep. pyogenes (A681018)
Source text: as §1

[7] = system: St. aureus 147N (A8601052); test: MIC by agar-dilution, St. aureus 147N (A8601052)
Source text: as §1

[8] = system: P. aeruginosa PU21 (A8101028); test: MIC by agar-dilution, P. aeruginosa PU21 (A8101028)
Source text: as §1

[9] = system: Serr. marcesens (A8421003); test: MIC by agar-dilution, Serr. marcesens (A8421003)
Source text: as §1

7-[2-(2-Aminothiazol-4-yl)-2-((Z)-1-carboxy-1-methylethoxyimino)acetamido]- 3-(8-bromo-6,7-dihydroxy-3-oxo-tetrahydroisoquinolin-2-ylmethyl)ceph-3-em-4-carboxylic acid [Example 8]
MIC [1]: 0.015 | MIC [2]: 0.03 | MIC [3]: 0.008 | MIC [4]: 0.125 | MIC [5]: 0.25 | MIC [6]: 0.06 | MIC [7]: 8 | MIC [8]: 0.008 | MIC [9]: 0.06
